# Assay results reported in ChEMBL document CHEMBL4649983, “Selective targeting of the BRG/PB1 bromodomains impairs embryonic and trophoblast stem cell maintenance” (Sci Adv, 2015).
# Values joined by “and” are separate entries in the source; they are usually repeats but may differ in a detail not shown here. Equal entries are not always repeated.
# Columns and labels:
# [1] = target: Protein polybromo-1 (Homo sapiens) (UniProt Q86U86); settings: Compound concentration 10.0 uM, Protein concentration 2.0 uM
# [2] = target: ATPase family AAA domain-containing protein 2B (Homo sapiens) (UniProt Q9ULI0); settings: Compound concentration 10.0 uM, Protein concentration 2.0 uM
# [3] = target: Histone acetyltransferase p300 (Homo sapiens) (UniProt Q09472); assay: Thermal Shift Assay. Domain start/stop: A1040-S1171; settings: Compound concentration 10.0 uM, Protein concentration 2.0 uM
# [4] = target: Transcription initiation factor TFIID subunit 1-like (Homo sapiens) (UniProt Q8IZX4); settings: Compound concentration 10.0 uM, Protein concentration 2.0 uM
# [5] = target: Protein polybromo-1 (Homo sapiens) (UniProt Q86U86); settings: Protein concentration 2.0 uM
# [6] = target: Bromodomain testis-specific protein (Homo sapiens) (UniProt Q58F21); settings: Compound concentration 10.0 uM, Protein concentration 2.0 uM
# [7] = target: Histone-lysine N-methyltransferase ASH1L (Homo sapiens) (UniProt Q9NR48); settings: Compound concentration 10.0 uM, Protein concentration 2.0 uM
# [8] = target: Protein polybromo-1 (Homo sapiens) (UniProt Q86U86); settings: Compound concentration 10.0 uM, Protein concentration 2.0 uM; remark: listed apart in the source
# [9] = target: PH-interacting protein (Homo sapiens) (UniProt Q8WWQ0); settings: Compound concentration 10.0 uM, Protein concentration 2.0 uM
# [10] = target: Bromodomain-containing protein 4 (Homo sapiens) (UniProt O60885); settings: Compound concentration 10.0 uM, Protein concentration 2.0 uM
# [11] = target: Bromodomain-containing protein 3 (Homo sapiens) (UniProt Q15059); assay: Thermal Shift Assay. Domain start/stop: P24-E144; settings: Compound concentration 10.0 uM, Protein concentration 2.0 uM
# [12] = target: Histone acetyltransferase KAT2A (Homo sapiens) (UniProt Q92830); settings: Compound concentration 10.0 uM, Protein concentration 2.0 uM
# [13] = target: Nuclear body protein SP140-like protein (Homo sapiens) (UniProt Q9H930); settings: Compound concentration 10.0 uM, Protein concentration 2.0 uM
# [14] = target: Bromodomain-containing protein 3 (Homo sapiens) (UniProt Q15059); settings: Compound concentration 10.0 uM, Protein concentration 2.0 uM
# [15] = target: Bromodomain-containing protein 4 (Homo sapiens) (UniProt O60885); settings: Compound concentration 10.0 uM, Protein concentration 2.0 uM; remark: listed apart in the source
# [16] = target: Transcription intermediary factor 1-alpha (Homo sapiens) (UniProt O15164); settings: Compound concentration 10.0 uM, Protein concentration 2.0 uM
# Peregrin (Homo sapiens) [17] = target: Peregrin (Homo sapiens) (UniProt P55201); settings: Compound concentration 10.0 uM, Protein concentration 2.0 uM
# [18] = target: Bromodomain-containing protein 9 (Homo sapiens) (UniProt Q9H8M2); settings: Compound concentration 10.0 uM, Protein concentration 2.0 uM
# [19] = target: Bromodomain and WD repeat-containing protein 1 (Homo sapiens) (UniProt Q9NSI6); settings: Compound concentration 10.0 uM, Protein concentration 2.0 uM
# [20] = target: Histone acetyltransferase p300 (Homo sapiens) (UniProt Q09472); settings: Compound concentration 10.0 uM, Protein concentration 2.0 uM
# [21] = target: Bromodomain-containing protein 1 (Homo sapiens) (UniProt O95696); settings: Compound concentration 10.0 uM, Protein concentration 2.0 uM
# [22] = target: Protein polybromo-1 (Homo sapiens) (UniProt Q86U86); assay: Thermal Shift Assay. Domain start/stop: R487-D598; settings: Compound concentration 10.0 uM, Protein concentration 2.0 uM
# [23] = target: CREB-binding protein (Homo sapiens) (UniProt Q92793); settings: Compound concentration 10.0 uM, Protein concentration 2.0 uM
# [24] = target: Bromodomain adjacent to zinc finger domain protein 1A (Homo sapiens) (UniProt Q9NRL2); settings: Compound concentration 10.0 uM, Protein concentration 2.0 uM
# [25] = target: Bromodomain and WD repeat-containing protein 3 (Homo sapiens) (UniProt Q6RI45); settings: Compound concentration 10.0 uM, Protein concentration 2.0 uM
# [26] = target: Nuclear body protein SP140 (Homo sapiens) (UniProt Q13342); settings: Compound concentration 10.0 uM, Protein concentration 2.0 uM
# [27] = target: Transcription initiation factor TFIID subunit 1 (Homo sapiens) (UniProt P21675); settings: Compound concentration 10.0 uM, Protein concentration 2.0 uM
# [28] = target: Histone acetyltransferase KAT2B (Homo sapiens) (UniProt Q92831); settings: Compound concentration 10.0 uM, Protein concentration 2.0 uM
# [29] = target: Transcription initiation factor TFIID subunit 1 (Homo sapiens) (UniProt P21675); settings: Compound concentration 10.0 uM, Protein concentration 2.0 uM; remark: listed apart in the source
# [30] = target: Protein polybromo-1 (Homo sapiens) (UniProt Q86U86); assay: Thermal Shift Assay. Domain start/stop: H23-D159; settings: Compound concentration 10.0 uM, Protein concentration 2.0 uM
# [31] = target: Bromodomain and PHD finger-containing protein 3 (Homo sapiens) (UniProt Q9ULD4); settings: Compound concentration 10.0 uM, Protein concentration 2.0 uM
# [32] = target: Transcription initiation factor TFIID subunit 1-like (Homo sapiens) (UniProt Q8IZX4); settings: Compound concentration 10.0 uM, Protein concentration 2.0 uM; remark: listed apart in the source
# [33] = target: Chromatin remodeling regulator CECR2 (Homo sapiens) (UniProt Q9BXF3); settings: Compound concentration 10.0 uM, Protein concentration 2.0 uM
# [34] = target: PH-interacting protein (Homo sapiens) (UniProt Q8WWQ0); settings: Compound concentration 20.0 uM, Protein concentration 25.0 uM
# Description: Alphascreen assay. Domain start/stop: D1302-R1434
# [35] = target: Tripartite motif-containing protein 66 (Homo sapiens) (UniProt O15016); assay: Thermal Shift Assay. Domain start/stop: M1091-S1218; settings: Compound concentration 10.0 uM, Protein concentration 2.0 uM
# [36] = target: SWI/SNF-related matrix-associated actin-dependent regulator of chromatin subfamily A member 2 (Homo sapiens) (UniProt P51531); settings: Compound concentration 10.0 uM, Protein concentration 2.0 uM
# [37] = target: Protein polybromo-1 (Homo sapiens) (UniProt Q86U86); settings: Compound concentration 10.0 uM, Protein concentration 2.0 uM; remark: listed apart in the source
# [38] = target: SWI/SNF-related matrix-associated actin-dependent regulator of chromatin subfamily A member 2 (Homo sapiens) (UniProt P51531); assay: Thermal Shift Assay. Domain start/stop: A1373-E1493; settings: Compound concentration 10.0 uM, Protein concentration 2.0 uM
# [39] = target: ATPase family AAA domain-containing protein 2 (Homo sapiens) (UniProt Q6PL18); settings: Compound concentration 10.0 uM, Protein concentration 2.0 uM
# [40] = target: SWI/SNF-related matrix-associated actin-dependent regulator of chromatin subfamily A member 4 (Homo sapiens) (UniProt P51532); settings: Compound concentration 10.0 uM, Protein concentration 2.0 uM
# [41] = target: Transcription intermediary factor 1-beta (Homo sapiens) (UniProt Q13263); settings: Compound concentration 10.0 uM, Protein concentration 2.0 uM
# [42] = target: Bromodomain adjacent to zinc finger domain protein 2B (Homo sapiens) (UniProt Q9UIF8); settings: Compound concentration 10.0 uM, Protein concentration 2.0 uM
# [43] = target: Bromodomain testis-specific protein (Homo sapiens) (UniProt Q58F21); settings: Compound concentration 10.0 uM, Protein concentration 2.0 uM; remark: listed apart in the source
# [44] = target: Nucleosome-remodeling factor subunit BPTF (Homo sapiens) (UniProt Q12830); settings: Compound concentration 10.0 uM, Protein concentration 2.0 uM
# [45] = target: Bromodomain-containing protein 2 (Homo sapiens) (UniProt P25440); settings: Compound concentration 10.0 uM, Protein concentration 2.0 uM
# [46] = target: Bromodomain adjacent to zinc finger domain protein 2A (Homo sapiens) (UniProt Q9UIF9); settings: Compound concentration 10.0 uM, Protein concentration 2.0 uM
# Peregrin (Homo sapiens) [47] = target: Peregrin (Homo sapiens) (UniProt P55201); settings: Compound concentration 10.0 uM, Protein concentration 2.0 uM; remark: listed apart in the source
# [48] = target: Bromodomain-containing protein 2 (Homo sapiens) (UniProt P25440); settings: Compound concentration 10.0 uM, Protein concentration 2.0 uM; remark: listed apart in the source
# [49] = target: Transcription intermediary factor 1-alpha (Homo sapiens) (UniProt O15164); settings: Compound concentration 10.0 uM, Protein concentration 2.0 uM; remark: listed apart in the source
# [50] = target: Protein polybromo-1 (Homo sapiens) (UniProt Q86U86); settings: Protein concentration 2.0 uM; remark: listed apart in the source
# [51] = Compound concentration 100.0 uM
# Sequence of SWI/SNF-related matrix-associated actin-dependent regulator of chromatin subfamily A member 2 (Homo sapiens) (P51531 whole entry, the tested form may be a part): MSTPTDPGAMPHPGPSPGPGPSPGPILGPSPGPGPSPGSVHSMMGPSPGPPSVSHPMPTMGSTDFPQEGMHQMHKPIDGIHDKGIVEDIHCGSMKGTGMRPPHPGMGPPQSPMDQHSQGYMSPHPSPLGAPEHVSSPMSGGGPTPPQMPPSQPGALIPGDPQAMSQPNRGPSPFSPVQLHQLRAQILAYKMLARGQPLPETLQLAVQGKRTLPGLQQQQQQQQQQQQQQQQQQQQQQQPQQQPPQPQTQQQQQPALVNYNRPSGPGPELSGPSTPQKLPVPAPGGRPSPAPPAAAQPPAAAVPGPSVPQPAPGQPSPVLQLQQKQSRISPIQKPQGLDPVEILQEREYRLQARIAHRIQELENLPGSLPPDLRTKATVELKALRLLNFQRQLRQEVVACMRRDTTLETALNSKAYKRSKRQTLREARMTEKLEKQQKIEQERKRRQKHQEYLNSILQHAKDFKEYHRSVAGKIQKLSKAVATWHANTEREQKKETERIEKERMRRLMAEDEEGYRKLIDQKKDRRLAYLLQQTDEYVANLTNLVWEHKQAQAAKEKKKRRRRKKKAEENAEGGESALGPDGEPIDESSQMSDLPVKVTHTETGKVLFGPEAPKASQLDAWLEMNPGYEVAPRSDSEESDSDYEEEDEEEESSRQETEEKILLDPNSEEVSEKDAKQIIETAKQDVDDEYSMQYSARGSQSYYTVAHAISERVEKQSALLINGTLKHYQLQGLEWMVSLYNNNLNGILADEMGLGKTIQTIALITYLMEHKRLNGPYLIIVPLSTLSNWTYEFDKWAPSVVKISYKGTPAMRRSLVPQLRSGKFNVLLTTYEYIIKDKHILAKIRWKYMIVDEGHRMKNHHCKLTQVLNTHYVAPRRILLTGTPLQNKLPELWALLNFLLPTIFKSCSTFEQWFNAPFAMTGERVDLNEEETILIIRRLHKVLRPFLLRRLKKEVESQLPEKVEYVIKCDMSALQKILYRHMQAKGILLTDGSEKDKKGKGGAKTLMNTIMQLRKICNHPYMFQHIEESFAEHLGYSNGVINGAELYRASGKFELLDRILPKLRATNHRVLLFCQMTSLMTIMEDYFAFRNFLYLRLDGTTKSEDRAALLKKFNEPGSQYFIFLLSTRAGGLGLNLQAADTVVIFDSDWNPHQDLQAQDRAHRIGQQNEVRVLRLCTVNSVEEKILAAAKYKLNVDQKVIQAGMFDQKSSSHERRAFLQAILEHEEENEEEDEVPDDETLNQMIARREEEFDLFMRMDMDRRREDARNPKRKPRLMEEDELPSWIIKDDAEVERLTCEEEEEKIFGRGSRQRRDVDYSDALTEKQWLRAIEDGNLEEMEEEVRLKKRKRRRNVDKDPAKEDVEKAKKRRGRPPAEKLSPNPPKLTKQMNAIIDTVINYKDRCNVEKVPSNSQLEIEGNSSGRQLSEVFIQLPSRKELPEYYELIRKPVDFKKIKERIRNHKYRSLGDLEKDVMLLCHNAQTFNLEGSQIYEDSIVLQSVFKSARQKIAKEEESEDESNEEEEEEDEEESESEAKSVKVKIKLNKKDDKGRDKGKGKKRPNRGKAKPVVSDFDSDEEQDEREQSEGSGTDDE
# Sequence of Protein polybromo-1 (Homo sapiens) (Q86U86 whole entry, the tested form may be a part): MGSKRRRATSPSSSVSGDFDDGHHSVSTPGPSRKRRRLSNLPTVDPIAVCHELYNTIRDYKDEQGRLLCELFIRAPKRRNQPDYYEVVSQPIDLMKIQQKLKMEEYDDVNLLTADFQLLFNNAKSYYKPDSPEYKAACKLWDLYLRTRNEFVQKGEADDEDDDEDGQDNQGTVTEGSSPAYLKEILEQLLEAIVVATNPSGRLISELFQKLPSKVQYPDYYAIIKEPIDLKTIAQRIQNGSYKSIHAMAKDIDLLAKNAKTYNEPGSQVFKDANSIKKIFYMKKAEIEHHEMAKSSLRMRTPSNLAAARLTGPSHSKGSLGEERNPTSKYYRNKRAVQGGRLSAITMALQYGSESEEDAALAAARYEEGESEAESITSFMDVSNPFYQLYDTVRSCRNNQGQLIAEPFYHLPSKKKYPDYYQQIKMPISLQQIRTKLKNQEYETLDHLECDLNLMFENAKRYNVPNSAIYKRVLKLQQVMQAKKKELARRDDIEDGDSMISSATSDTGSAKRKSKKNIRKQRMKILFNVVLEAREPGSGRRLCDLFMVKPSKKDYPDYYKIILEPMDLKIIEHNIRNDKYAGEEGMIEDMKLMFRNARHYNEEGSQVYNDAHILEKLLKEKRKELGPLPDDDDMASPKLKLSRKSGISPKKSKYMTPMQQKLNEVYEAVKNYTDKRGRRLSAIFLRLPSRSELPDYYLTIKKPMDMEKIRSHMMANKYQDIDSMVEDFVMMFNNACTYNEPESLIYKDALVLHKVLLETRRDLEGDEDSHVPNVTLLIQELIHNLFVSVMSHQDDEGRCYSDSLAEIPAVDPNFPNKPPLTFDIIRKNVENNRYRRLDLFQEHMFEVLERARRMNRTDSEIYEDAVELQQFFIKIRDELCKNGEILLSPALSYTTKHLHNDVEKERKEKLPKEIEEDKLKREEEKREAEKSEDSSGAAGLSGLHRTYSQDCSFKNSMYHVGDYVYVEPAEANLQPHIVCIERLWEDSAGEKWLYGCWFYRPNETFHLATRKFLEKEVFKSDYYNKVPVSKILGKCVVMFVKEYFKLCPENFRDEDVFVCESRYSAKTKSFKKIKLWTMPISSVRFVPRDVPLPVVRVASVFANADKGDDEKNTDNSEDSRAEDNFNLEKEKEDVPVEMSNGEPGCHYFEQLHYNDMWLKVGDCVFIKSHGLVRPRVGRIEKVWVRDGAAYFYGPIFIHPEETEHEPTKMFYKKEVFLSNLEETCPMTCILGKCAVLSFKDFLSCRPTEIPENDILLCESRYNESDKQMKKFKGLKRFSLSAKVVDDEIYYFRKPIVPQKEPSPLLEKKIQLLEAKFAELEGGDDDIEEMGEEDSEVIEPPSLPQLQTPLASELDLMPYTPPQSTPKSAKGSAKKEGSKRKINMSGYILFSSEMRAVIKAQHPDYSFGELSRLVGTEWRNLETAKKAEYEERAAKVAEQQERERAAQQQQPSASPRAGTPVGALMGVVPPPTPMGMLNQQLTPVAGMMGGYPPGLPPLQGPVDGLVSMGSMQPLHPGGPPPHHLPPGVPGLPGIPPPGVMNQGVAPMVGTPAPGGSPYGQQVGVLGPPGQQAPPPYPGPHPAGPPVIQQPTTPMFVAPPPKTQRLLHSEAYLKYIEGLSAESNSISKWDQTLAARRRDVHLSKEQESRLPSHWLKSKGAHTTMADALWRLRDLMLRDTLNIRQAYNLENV
# Sequence of SWI/SNF-related matrix-associated actin-dependent regulator of chromatin subfamily A member 4 (Homo sapiens) (P51532 whole entry): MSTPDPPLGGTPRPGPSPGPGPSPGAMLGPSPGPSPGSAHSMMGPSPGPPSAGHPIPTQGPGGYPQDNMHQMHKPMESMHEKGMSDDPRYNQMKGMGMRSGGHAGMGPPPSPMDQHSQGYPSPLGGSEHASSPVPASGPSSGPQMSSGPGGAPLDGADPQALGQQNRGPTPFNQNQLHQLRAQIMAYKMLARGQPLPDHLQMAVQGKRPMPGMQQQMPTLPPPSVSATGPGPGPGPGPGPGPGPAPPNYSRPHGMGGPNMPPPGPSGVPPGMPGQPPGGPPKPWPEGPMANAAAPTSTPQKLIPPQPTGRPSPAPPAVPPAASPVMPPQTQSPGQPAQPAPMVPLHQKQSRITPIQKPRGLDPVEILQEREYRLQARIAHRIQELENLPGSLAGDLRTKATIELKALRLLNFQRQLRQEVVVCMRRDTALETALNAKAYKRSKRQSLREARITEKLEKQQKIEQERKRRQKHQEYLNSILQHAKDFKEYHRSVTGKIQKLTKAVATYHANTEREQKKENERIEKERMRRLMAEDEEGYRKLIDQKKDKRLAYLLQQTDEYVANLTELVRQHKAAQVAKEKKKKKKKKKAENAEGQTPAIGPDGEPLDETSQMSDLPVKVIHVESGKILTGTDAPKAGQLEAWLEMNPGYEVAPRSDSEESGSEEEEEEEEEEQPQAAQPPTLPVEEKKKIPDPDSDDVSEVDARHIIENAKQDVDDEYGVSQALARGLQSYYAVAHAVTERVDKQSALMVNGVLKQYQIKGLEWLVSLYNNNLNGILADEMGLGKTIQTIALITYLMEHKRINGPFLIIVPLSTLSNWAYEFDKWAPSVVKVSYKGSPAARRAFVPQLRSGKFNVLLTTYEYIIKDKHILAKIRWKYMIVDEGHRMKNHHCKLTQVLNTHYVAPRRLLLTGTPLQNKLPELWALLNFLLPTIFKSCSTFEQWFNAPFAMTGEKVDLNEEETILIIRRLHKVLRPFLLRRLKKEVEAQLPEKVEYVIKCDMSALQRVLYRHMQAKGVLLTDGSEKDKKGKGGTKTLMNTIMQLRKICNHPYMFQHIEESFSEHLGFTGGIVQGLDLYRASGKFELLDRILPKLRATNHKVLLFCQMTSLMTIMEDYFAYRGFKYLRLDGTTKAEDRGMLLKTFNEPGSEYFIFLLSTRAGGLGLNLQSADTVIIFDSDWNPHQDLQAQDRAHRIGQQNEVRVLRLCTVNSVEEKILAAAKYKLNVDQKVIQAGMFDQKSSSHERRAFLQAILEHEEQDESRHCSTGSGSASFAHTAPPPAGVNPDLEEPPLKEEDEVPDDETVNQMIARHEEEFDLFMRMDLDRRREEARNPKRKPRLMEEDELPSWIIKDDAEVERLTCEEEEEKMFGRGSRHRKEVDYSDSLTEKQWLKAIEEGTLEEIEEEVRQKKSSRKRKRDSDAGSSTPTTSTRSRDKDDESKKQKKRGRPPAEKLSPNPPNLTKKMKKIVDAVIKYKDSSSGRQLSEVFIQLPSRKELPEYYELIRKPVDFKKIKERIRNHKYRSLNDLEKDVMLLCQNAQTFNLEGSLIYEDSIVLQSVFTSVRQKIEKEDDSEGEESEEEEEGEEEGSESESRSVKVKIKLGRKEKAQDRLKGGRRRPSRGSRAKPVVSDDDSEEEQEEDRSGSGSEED
smiles,measurement,setting,value
O=C(/C=C/N1C[C@H]2C[C@@H]1CN2c1ccccn1)c1ccccc1O,ΔTm,[1],0.85 °C
same,ΔTm,[2],-0.01 °C
same,ΔTm,[3],0.19 °C
same,ΔTm,[4],0.34 °C
same,ΔTm,[5]; Compound concentration 10.0 uM,1.13 °C
same,ΔTm,[5]; [51],4.63 °C
same,ΔTm,[6],1.04 °C
same,ΔTm,[7],0.52 °C
same,ΔTm,[8],0.54 °C
same,ΔTm,[9],1.62 °C
same,ΔTm,[10],0.56 °C
same,ΔTm,[11],0.14 °C
same,ΔTm,[12],0.77 °C
same,ΔTm,[13],1.02 °C
same,ΔTm,[14],0.84 °C
same,ΔTm,[15],0.36 °C and -0.62 °C
same,ΔTm,[16],0.79 °C
same,ΔTm,Peregrin (Homo sapiens) [17],-0.08 °C
same,ΔTm,[18],1.22 °C and 0.26 °C
same,ΔTm,[19],0.96 °C
same,ΔTm,[20],0.24 °C
same,ΔTm,[21],0.2 °C and 0.15 °C
same,ΔTm,[22],0.77 °C
same,ΔTm,[23],-0.23 °C and 0.38 °C
same,ΔTm,[24],0.92 °C
same,ΔTm,[25],1.25 °C
same,ΔTm,[26],1.62 °C
same,ΔTm,[27],-0.08 °C
same,ΔTm,[28],0.71 °C and -0.1 °C
same,ΔTm,[29],0.75 °C
same,ΔTm,[30],0.05 °C
same,ΔTm,[31],1.15 °C
same,ΔTm,[32],1.1 °C
same,ΔTm,[33],0.39 °C
same,ΔTm,[34],-0.35 °C
same,ΔTm,[35],0.5 °C
same,ΔTm,[36],6.62 °C and 8.52 °C
same,ΔTm,[37],10 °C
same,ΔTm,[38],5.23 °C
same,ΔTm,[39],0.59 °C and -0.66 °C
same,ΔTm,[40],5.19 °C and 7.18 °C (2×)
same,ΔTm,[41],0.43 °C
same,ΔTm,[42],0.24 °C
same,ΔTm,[43],0.83 °C
same,ΔTm,[44],0.61 °C
same,ΔTm,[45],0.4 °C
same,ΔTm,[46],0.02 °C
same,ΔTm,Peregrin (Homo sapiens) [47],1.12 °C
same,ΔTm,[48],0 °C
same,ΔTm,[49],0.65 °C
same,ΔTm,[50]; Compound concentration 10.0 uM,0.98 °C
same,ΔTm,[50]; [51],2.54 °C
